Experimental data from patent publication US4990499A, “Anti-herpes simplex virus activity of 5-alkoxymethyl-2'-deoxycytidimes and their 5-monophosphates” (priority 1989, dated 1991).

Legend:
Assay type in all cases: cell-based
[1] = test system: Deoxynucleoside Triphosphate (dNTP) Pools in Uninfected Vero Cells; assay: Deoxynucleoside triphosphate (dNTP) pools in uninfected (mock-infected) Vero cells; conditions: Table 7, uninfected Vero cells, treatment 7 hours, ± S.E.
Outline: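 Vero cells were mock-infected for 1 h, then treated with MMdCyd, H4 dUrd, both together, dGUO ± H4 dUrd, or N-methyl-MMdCyd, with untreated cells as control. dNTP pools were measured, and values are means of at least two assays of triplicate cell cultures.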

[2] = Inhibition of proliferation (MTC), CEM cells; conditions: human, highest concentration tested
Procedure: (§1) Inhibitory effects of MMdCyd on the proliferation of murine and human tumor cells was also investigated. MTC for MMdCyd was greater than 400 μg/ml (highest concentration tested) against Raji, MOLT/4F, MT4, CEM and H-9 (human) and L1210 (murine Leukemia) cells.

[3] = Cytotoxicity (MTC), Vero cells; conditions: monkey
Procedure: (§2) The antiviral activity, ^a cyctotoxicity* and antiviral indices of MMdCyd in the presence of H4 dUrd, dGuo and H4 dUrd+dGuo were determined.
(§3) Minimum cytotoxic concentrations (MTC) for MMdCyd was greater than 1,000 μg/ml for RK-13, HEP-2 and Vero cells.
(§4) ^c MTC = Minimum toxic concentration concentration required to
(§5) produce definite evidence of microscopic toxicity on confluent monolayer

Vero cells = assay: Cytotoxicity (MTC), Vero cells; conditions: monkey
Procedure: as §2, §3, §4, §5

[4] = Inhibition of proliferation (MTC), MT4 cells; conditions: human, highest concentration tested
Procedure: as §1

## COCc1cn([C@H]2C[C@H](O)[C@@H](CO)O2)c(=O)nc1N [MMdCyd, 5-methoxymethyl-2'-deoxycytidine]
[1]
  dATP pool: 8.3 ± 0.32 .rho.moles/10^6 cells
  dCTP pool: 14.2 ± 1.30 .rho.moles/10^6 cells
  dGTP pool: 52 ± 1.84 .rho.moles/10^6 cells
  dTTP pool: 44 ± 1.67 .rho.moles/10^6 cells
[2]
  MCC: > 400 µg/mL
[3]
  MCC: > 1000 µg/mL
Vero cells
  MTC (minimum toxic concentration): > 1,000 μg/ml
[4]
  MCC: > 400 µg/mL
